Assay results reported in ChEMBL document CHEMBL1201862, “PubChem BioAssay data set” (2004).
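Assay format: 96-well plates, 48-hour exposure. GI50 marks 50% less growth.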 Activity calls are given as the source filed them. No stated cut-off is given here; in the data, active = GI50 up to about 1.1 µM and inactive = higher.

What was measured:
Experiment in all cases: NCI anticancer screen, dose series, 48 h
786-0 = test system: 786-0
A498 = test system: A498
A549 = test system: A549
ACHN = test system: ACHN
CAKI-1 = test system: CAKI-1
COLO 205 = test system: COLO 205
DLD-1 = test system: DLD-1
DMS-114 = test system: DMS-114
DMS-273 = test system: DMS-273
EKVX = test system: EKVX
HCC 2998 = test system: HCC 2998
HCT-116 = test system: HCT-116
HCT-15 = test system: HCT-15
HL-60 = test system: HL-60
HOP-18 = test system: HOP-18
HOP-62 = test system: HOP-62
HOP-92 = test system: HOP-92
HT-29 = test system: HT-29
IGROV-1 = test system: IGROV-1
K562 = test system: K562
KM-20L2 = test system: KM-20L2
KM12 = test system: KM12
LOX IMVI = test system: LOX IMVI
LXFL 529 = test system: LXFL 529
M14 = test system: M14
M19-MEL = test system: M19-MEL
MOLT-4 = test system: MOLT-4
Malme-3M = test system: Malme-3M
NCI-H226 = test system: NCI-H226
NCI-H23 = test system: NCI-H23
NCI-H460 = test system: NCI-H460
NCI-H522 = test system: NCI-H522
OVCAR-3 = test system: OVCAR-3
OVCAR-4 = test system: OVCAR-4
OVCAR-5 = test system: OVCAR-5
OVCAR-8 = test system: OVCAR-8
RPMI-8226 = test system: RPMI-8226
RXF 393 = test system: RXF 393
SF-268 = test system: SF-268
SF-295 = test system: SF-295
SF-539 = test system: SF-539
SK-MEL-28 = test system: SK-MEL-28
SK-MEL-2 = test system: SK-MEL-2
SK-MEL-5 = test system: SK-MEL-5
SK-OV-3 = test system: SK-OV-3
SN12C = test system: SN12C
SNB-19 = test system: SNB-19
SNB-75 = test system: SNB-75
SNB-78 = test system: SNB-78
SR = test system: SR
SW-620 = test system: SW-620
TK-10 = test system: TK-10
U-251 = test system: U-251
UACC-257 = test system: UACC-257
UACC-62 = test system: UACC-62
UO-31 = test system: UO-31
CCRF-CEM = test system: CCRF-CEM
XF498 = test system: XF498
BT-549 = test system: BT-549
DU-145 = test system: DU-145
Hs-578T = test system: Hs-578T
NCI/ADR-RES = test system: NCI/ADR-RES
PC-3 = test system: PC-3
T47D = test system: T47D

Measured: GI50

C=C(C)C1CC2C(C)=C(OC(C)=O)C1n1c(=O)c3cc4ccccc4cc3c(=O)n12 (centres undefined)
57.5 µM: HCT-15
inactive: 786-0 > 95.5 µM | A498 > 84.5 µM | A549 > 72.3 µM | ACHN > 82.8 µM | CAKI-1 62.2 µM | COLO 205 > 100 µM | DLD-1 53.1 µM | DMS-114 65.8 µM | DMS-273 54.2 µM | EKVX 64.1 µM | HCC 2998 70.8 µM | HCT-116 > 76.7 µM | HL-60 1.41 µM | HOP-18 > 100 µM | HOP-62 > 100 µM | HOP-92 28.6 µM | HT-29 > 80.9 µM | IGROV-1 > 77.1 µM | K562 46.2 µM | KM-20L2 > 93.5 µM | KM12 > 82 µM | LOX IMVI > 84.3 µM | LXFL 529 69.7 µM | M14 > 100 µM | M19-MEL 74 µM | MOLT-4 32.7 µM | Malme-3M > 89.3 µM | NCI-H226 34.7 µM | NCI-H23 50.1 µM | NCI-H460 62.5 µM | NCI-H522 51.5 µM | OVCAR-3 46.9 µM | OVCAR-4 73.3 µM | OVCAR-5 > 100 µM | OVCAR-8 > 68.7 µM | RPMI-8226 36 µM | RXF 393 24.2 µM | SF-268 81.3 µM | SF-295 > 71.6 µM | SF-539 > 100 µM | SK-MEL-28 > 100 µM | SK-MEL-2 > 100 µM | SK-MEL-5 87.3 µM | SK-OV-3 > 100 µM | SN12C 98.2 µM | SNB-19 > 100 µM | SNB-75 42 µM | SNB-78 95.9 µM | SR 36 µM | SW-620 > 71.4 µM | TK-10 > 100 µM | U-251 63.1 µM | UACC-257 > 100 µM | UACC-62 31.8 µM | UO-31 > 83 µM

CC1=C(SC#N)S(=O)(=O)N(c2ccccc2)C(C)=C1SC#N
inactive: 786-0 49.4 µM | A498 22.6 µM | A549 40.7 µM | ACHN 44 µM | CAKI-1 45.2 µM | CCRF-CEM 17.5 µM | DLD-1 33.3 µM | DMS-114 5.92 µM | DMS-273 50.5 µM | HCC 2998 > 100 µM | HCT-116 3.27 µM | HL-60 29 µM | HOP-62 > 10 µM | HOP-92 3.63 µM | HT-29 > 100 µM | IGROV-1 6.56 µM | K562 21 µM | KM12 60.4 µM | LOX IMVI 12.9 µM | LXFL 529 22.4 µM | M14 > 10 µM | M19-MEL 29.5 µM | MOLT-4 20 µM | Malme-3M > 100 µM | NCI-H226 36.2 µM | NCI-H23 48.2 µM | NCI-H460 32.8 µM | NCI-H522 18 µM | OVCAR-3 > 10 µM | OVCAR-4 33.3 µM | OVCAR-5 39.4 µM | OVCAR-8 15.1 µM | RPMI-8226 28.5 µM | RXF 393 21.8 µM | SF-268 69.2 µM | SF-295 22.6 µM | SF-539 43.3 µM | SK-MEL-28 61.9 µM | SK-MEL-2 26.7 µM | SK-MEL-5 42 µM | SK-OV-3 38.2 µM | SN12C 56.6 µM | SNB-19 25.1 µM | SNB-75 27 µM | SNB-78 78.3 µM | SR 24.4 µM | SW-620 41.8 µM | TK-10 > 100 µM | U-251 16.9 µM | UACC-257 32 µM | UACC-62 30.1 µM | UO-31 24.4 µM | XF498 16.8 µM
46 µM: HCT-15

S=C(N/N=C/c1ccccc1)NC1CC(c2ccccc2)Oc2ccccc21 (centres undefined)
inactive: 786-0 67 µM | A549 26.8 µM | ACHN > 10 µM | CAKI-1 28.4 µM | CCRF-CEM > 10 µM | COLO 205 > 100 µM | DLD-1 91.8 µM | DMS-114 43.2 µM | DMS-273 66.7 µM | EKVX 18.8 µM | HCC 2998 > 100 µM | HCT-116 72.1 µM | HOP-92 2.17 µM | HT-29 53 µM | IGROV-1 > 100 µM | K562 15.2 µM | KM12 > 100 µM | LOX IMVI > 100 µM | LXFL 529 > 100 µM | M14 15.3 µM | M19-MEL > 100 µM | MOLT-4 > 10 µM | Malme-3M 68.1 µM | NCI-H226 > 100 µM | NCI-H23 25.8 µM | NCI-H460 23.1 µM | NCI-H522 > 100 µM | OVCAR-3 8.95 µM | OVCAR-4 16.9 µM | OVCAR-5 > 100 µM | OVCAR-8 48 µM | SF-268 51.4 µM | SF-295 16.1 µM | SF-539 38.3 µM | SK-MEL-28 70 µM | SK-MEL-2 > 100 µM | SK-MEL-5 11.1 µM | SK-OV-3 11.7 µM | SN12C > 100 µM | SNB-19 36.5 µM | SNB-75 7.16 µM | SNB-78 22 µM | SR > 100 µM | SW-620 > 100 µM | TK-10 > 10 µM | U-251 33.4 µM | UACC-62 48.8 µM | UO-31 > 100 µM | XF498 34.5 µM

CCc1ccc(NCc2cc(OC)c(OC)c(OC)c2)cc1
active: BT-549 < 10 nM | CCRF-CEM 0.284 µM | DLD-1 0.492 µM | DMS-114 0.457 µM | DU-145 716 nM | HCT-116 0.0998 µM | HL-60 0.056 µM | HOP-62 0.532 µM | HT-29 0.176 µM | Hs-578T 261 nM | K562 0.0845 µM | KM-20L2 0.267 µM | KM12 0.0738 µM | M19-MEL 0.413 µM | MOLT-4 0.29 µM | Malme-3M 0.232 µM | NCI-H23 0.611 µM | NCI-H522 0.186 µM | NCI/ADR-RES 61.1 nM | OVCAR-3 0.211 µM | PC-3 305 nM | RPMI-8226 0.367 µM | RXF 393 0.211 µM | SF-295 0.197 µM | SNB-19 0.522 µM | SR < 0.0282 µM | T47D 302 nM | XF498 0.933 µM
inactive: ACHN 2.24 µM | EKVX 4.2 µM | HOP-92 1.24 µM | NCI-H226 3.3 µM | OVCAR-4 18.2 µM | OVCAR-5 3.02 µM
0.164 µM: HCT-15
